Measured values from patent publication US10940139B2, “Compounds that interact with the Ras superfamily for the treatment of cancers, inflammatory diseases, rasopathies, and fibrotic disease” (Shy Therapeutics LLC, priority 2017, dated 2021).

Experiments:
[1] = system: IL6 production in RAW 264.7 macrophage cell line; test: Mouse IL6 quantification assay (LPS-stimulated macrophages, ELISA); type: cell-based; details: RAW264.7, RAW 264.7 murine leukemia virus transformed macrophage cell lines, LPS stimulation, read-out: IL-6 % Inhibition at 30 μM
[2] = system: TNFα production in RAW 264.7 macrophage cell line; test: Mouse TNF alpha quantification assay (LPS-stimulated macrophages, ELISA); type: cell-based; details: RAW264.7, RAW 264.7 murine leukemia virus transformed macrophage cell lines, LPS stimulation, read-out: TNF-α % Inhibition at 30 μM

Row | Structure (SMILES) | inhibition at 30 µM [1] | inhibition at 30 µM [2]
1 | Cc1sc2c(O)nc(-c3ccccn3)nc2c1-c1cccnc1 [drawing 2306] | 51 to 75% | 0%
2 | COc1cnc(-c2ccccn2)nc1O [drawing 2307] | 76 to 100% | 1 to 25%
3 | COc1cnc(C2CCCN2)nc1O (centres unmarked) [drawing 2308] | 1 to 25% | 1 to 25%
4 | COc1nc(-c2ccccn2)nc2c(C3CCCC3)csc12 [drawing 2309] | 0% | 0%
5 | CCC(C)c1csc2c(OC)nc(-c3ccccn3)nc12 (centres unmarked) [drawing 2310] | 26 to 50% | 1 to 25%
6 | COC(=O)c1c(C)sc2c(O)nc(-c3ccccn3)nc12 [drawing 2311] | 76 to 100% | 1 to 25%
7 | Cc1c(Br)sc2c(O)nc(-c3ccccn3)nc12 [drawing 2312] | 76 to 100% | 51 to 75%
8 | Cc1c(C(=O)O)sc2c(O)nc(-c3ccccn3)nc12 [drawing 2313] | 76 to 100% | 76 to 100%
9 | COC(=O)c1sc2c(O)nc(-c3ccccn3)nc2c1C [drawing 2314] | 1 to 25% | 0%
10 | Oc1nc(-c2ccccn2)nc2c3c(sc12)CNC3 [drawing 2315] | 0% | 1 to 25%
11 | Oc1nc(-c2ccccn2)nc2c(C3CCC3)csc12 [drawing 2316] | 76 to 100% | 76 to 100%
12 | COc1nc(-c2ccccn2)nc2c(C3CCCCC3)csc12 [drawing 2317] | 26 to 50% | 1 to 25%
13 | COc1nc(-c2ccccn2)nc2c(C3CCC3)csc12 [drawing 2318] | 1 to 25% | 1 to 25%
14 | CC(C)Oc1cnc(-c2ccccn2)nc1O [drawing 2319] | 76 to 100% | 1 to 25%
15 | Oc1cccc(-c2csc3c(O)nc(-c4ccccn4)nc23)n1 [drawing 2320] | 51 to 75% | 0%
16 | O=C(NCCc1ccncn1)c1csc2nc(-c3ccccn3)nc(N3CCOCC3)c12 [drawing 2321] | 1 to 25% | 0%
17 | CC(C)c1nn(C)cc1-c1csc2c(O)nc(-c3ccccn3)nc12 [drawing 2322] | 76 to 100% | 1 to 25%
18 | CN(C)CCOc1cccc(-c2csc3c(O)nc(-c4ccccn4)nc23)c1 [drawing 2323] | 76 to 100% | 76 to 100%
19 | Oc1nc(-c2ccccn2)nc2c(-c3cc(CN4CCCC4)ccc3F)csc12 [drawing 2324] | 51 to 75% | 0%
20 | N#Cc1cccc(-c2csc3c(O)nc(-c4ccccn4)nc23)c1 [drawing 2325] | 26 to 50% | 0%
21 | Oc1nc(-c2ccccn2)nc2c(-c3cncnc3)csc12 [drawing 2326] | 26 to 50% | 0%
22 | Cc1c(-c2csc3c(O)nc(-c4ccccn4)nc23)cnn1C [drawing 2327] | 76 to 100% | 51 to 75%
23 | Cc1nn(C(C)C)cc1-c1csc2c(O)nc(-c3ccccn3)nc12 [drawing 2328] | 76 to 100% | 26 to 50%

Row | Structure (SMILES) | inhibition at 30 µM [1] | inhibition at 30 µM [2]
24 | Oc1nc(-c2ccccn2)nc2c(-c3cncc(C(F)F)c3)csc12 [drawing 2329] | 26 to 50% | 0%
25 | COc1ccc(CCC(=O)Nc2nc(-c3ccccn3)nc3sccc23)cn1 [drawing 2330] | 76 to 100% | 51 to 75%
26 | Cc1sc2c(O)nc(-c3ccccn3)nc2c1-c1ccncc1 [drawing 2331] | 26 to 50% | 0%
27 | Cc1sc2c(O)nc(-c3ccccn3)nc2c1C(=O)N1CCN(c2ccccc2)CC1 [drawing 2332] | 26 to 50% | 1 to 25%
28 | Cc1sc2c(O)nc(-c3ccccn3)nc2c1C(=O)N1CCN(c2ccccc2)CC1C (centres unmarked) [drawing 2333] | 1 to 25% | 0%
29 | Cc1sc2c(O)nc(-c3ccccn3)nc2c1C(=O)N1CCN(Cc2cccc(O)c2)CC1 [drawing 2334] | 26 to 50% | 0%
30 | COC(=O)c1c(C)sc2c(N)nc(-c3ccccn3)nc12 [drawing 2335] | 76 to 100% | 1 to 25%
31 | Oc1nc(-c2ccccn2)nc2c(C3CCCCC3)csc12 [drawing 2336] | 0% | 0%
32 | Oc1nc(-c2ccccn2)nc2c(C3CCCC3)csc12 [drawing 2337] | 51 to 75% | 26 to 50%
33 | CC(C)Cc1csc2c(O)nc(-c3ccccn3)nc12 [drawing 2338] | 76 to 100% | 76 to 100%
34 | COc1cnc(-c2cn(C)cn2)nc1O [drawing 2339] | 26 to 50% | 0%
35 | COc1cnc(-c2nccn2C)nc1O [drawing 2340] | 1 to 25% | 0%
36 | Nc1cccc(-c2csc3c(O)nc(-c4ccccn4)nc23)n1 [drawing 2341] | 76 to 100% | 26 to 50%
37 | Cc1sc2c(O)nc(-c3ccccn3)nc2c1-c1ccccc1Cl [drawing 2342] | 51 to 75% | 51 to 75%
38 | COc1cnc(-c2cnc[nH]2)nc1O [drawing 2343] | 1 to 25% | 0%
39 | COc1cnc(CNC(=O)c2csc3nc(-c4ccccn4)nc(N)c23)[nH]c1=O [drawing 2344] | 1 to 25% | 1 to 25%
40 | Oc1nc(-c2ccccn2)nc2c(C3CC3)csc12 [drawing 2345] | 1 to 25% | 1 to 25%
41 | Oc1nc(-c2ccccn2)nc2c(CC3CNC3)csc12 [drawing 2346] | 76 to 100% | 1 to 25%
42 | COc1cnc(CNC(=O)c2csc3c(O)nc(-c4ccccn4)nc23)[nH]c1=O [drawing 2347] | 1 to 25% | 0%
43 | COc1cnc(CNC(=O)c2cc3nc(-c4ccccn4)nc(O)c3s2)[nH]c1=O [drawing 2348] | 0% | 1 to 25%
44 | Cc1sc2c(O)nc(-c3ccccn3)nc2c1Br [drawing 2349] | 26 to 50% | 0%
45 | COc1cnc(CNC(=O)c2c(C)sc3c(O)nc(-c4ccccn4)nc23)[nH]c1=O [drawing 2350] | 0% | 1 to 25%
46 | COc1cnc(CNC(=O)c2sc3c(O)nc(-c4ccccn4)nc3c2C)[nH]c1=O [drawing 2351] | 1 to 25% | 1 to 25%

Row | Structure (SMILES) | inhibition at 30 µM [1] | inhibition at 30 µM [2]
47 | O=C(c1csc2c(O)nc(-c3ccccn3)nc12)N1CCNC(c2ccc(Cl)cc2)C1 (centres unmarked) [drawing 2352] | 76 to 100% | 1 to 25%
48 | Oc1nc(-c2ccccn2)nc2c(CC3CCNC3)csc12 (centres unmarked) [drawing 2353] | 51 to 75% | 1 to 25%
49 | O=c1[nH]c(-c2ccccn2)nc2c([C@@H]3O[C@H](CO)[C@@H](O)[C@H]3O)csc12 [drawing 2354] | 1 to 25% | 26 to 50%
50 | Cn1cnc(-c2nc(O)c3c(-c4ccccc4)c(-c4ccncc4)sc3n2)c1 [drawing 2355] | 0% | 1 to 25%
51 | COCCNc1nc(-c2ccccn2)nc(-c2cccc(OCCN(C)C)c2)c1Oc1ccccc1 [drawing 2356] | 0% | 1 to 25%
52 | COCCNc1nc(-c2cn(C)cn2)nc2sc(-c3ccncc3)c(-c3ccccc3)c12 [drawing 2357] | 51 to 75% | 1 to 25%
53 | COc1nc(-c2cn(C)cn2)nc2sc(-c3ccncc3)c(-c3ccccc3)c12 [drawing 2358] | 51 to 75% | 1 to 25%
54 | OCC1(c2ccc(-c3nc(-c4ccccn4)nc(-c4ccc(C5(CO)CC5)cc4)c3Oc3ccccc3)cc2)CC1 [drawing 2359] | 0% | 0%
55 | COc1ccc(COC[C@H]2O[C@@H](c3csc4c(=O)[nH]c(-c5ccccn5)nc34)[C@H](O)[C@@H]2O)cc1 [drawing 2360] | 1 to 25% | 26 to 50%
56 | OCC1(c2ccc(-c3nc(-c4ccccn4)nc(O)c3Oc3ccccc3)cc2)CC1 [drawing 2361] | 0% | 26 to 50%
57 | COCCNc1nc(-c2nccn2C)nc2sc(-c3ccccc3)c(-c3ccccc3)c12 [drawing 2362] | 51 to 75% | 26 to 50%
58 | Cn1ccnc1-c1nc(O)c2c(-c3ccccc3)c(-c3ccccc3)sc2n1 [drawing 2363] | 1 to 25% | 26 to 50%
59 | Cn1cnc(-c2nc(O)c3c(-c4ccccc4)c(-c4ccc(CNC(=O)OC(C)(C)C)cc4)sc3n2)c1 [drawing 2364] | 1 to 25% | 0%
60 | COCCNc1nc(-c2ccccn2)nc2c1c(-c1ccccc1)nn2-c1ccccn1 [drawing 2365] | 76 to 100% | 51 to 75%
61 | Oc1nc(-c2ccccn2)nc2c1c(-c1ccccc1)nn2-c1ccccn1 [drawing 2366] | 51 to 75% | 1 to 25%
62 | COc1nc(-c2ccccn2)nc2c1c(-c1ccccc1)nn2-c1ccccn1 [drawing 2367] | 76 to 100% | 76 to 100%
63 | COCC(C)Nc1nc(-c2ccccn2)nc2sc(-c3ccncc3)c(-c3ccccc3)c12 (centres unmarked) [drawing 2368] | 0% | 26 to 50%
64 | Nc1nc(O)c2sc(-c3cccc(C(=O)NC4CCNC4=O)c3)cc2n1 (centres unmarked) [drawing 2369] | 1 to 25% | 1 to 25%
65 | Nc1nc(O)c2sc(-c3cccc(C(=O)N4CCC(O)C4)c3)cc2n1 (centres unmarked) [drawing 2370] | 0% | 0%
66 | NC(=O)C1CCCN1C(=O)c1cccc(-c2cc3nc(N)nc(O)c3s2)c1 (centres unmarked) [drawing 2371] | 0% | 0%
67 | Nc1nc(O)c2sc(-c3cccc(C(=O)NCc4ncc[nH]4)c3)cc2n1 [drawing 2372] | 0% | 0%
